According to patent US9371364B2, “Dual-targeted therapeutic peptide for nasopharyngeal carcinoma, nanoparticles carrying same and uses thereof” (HUAZHONG UNIVERSITY OF SCIENCE AND TECHNOLOGY, priority 2012, dated 2016):

Test system: nasopharyngeal carcinoma cells (5-8 F, SUNE-1, HONE-1) versus other cancer cells
Assay: Octa-FNP fluorescent nano-probe screening of tumor cells (laser confocal imaging, FACS)
Format: cell-based
Settings: 3 h incubation, FIG. 1
Method: In this example, a peptide octavalent fluorescent nanoprobe based on tetramer far-red fluorescent protein was prepared by using a method for constructing a peptide fluorescent probe having a multivalent effect and a nanosized effect invented in the previous research. The probe was used to detect and screen different types of tumor cell lines, in order to screen and identify the tumor-targeting property of the peptide, […] (SEQ ID NO: 3).

Question: What does the source list for “LTVSPWYLTVSPWY (a targeted therapeutic peptide for nasopharyngeal carcinoma)”?
Answer: induction of tumor cell death: can effectively induce the death of tumor cells; tumor-targeting property of the peptide: excellent tumor-targeting property to nasopharyngeal carcinoma cells
